Measurements from US9770026B2, “Substituted pyrimidine compound and uses thereof” (Shenyang Sinochem Agrochemicals R&D Co., Ltd., priority 2012, dated 2017).

What was measured:
wheat powdery mildew = test: protectant activity in vivo against wheat powdery mildew; settings: protectant activity; for pest or weed control at 100 µg/mL / pest or weed control at 400 µg/mL / pest or weed control at 6.25 µg/mL / pest or weed control at 25 µg/mL: Triticum aestivum, 168 h; for pest or weed control at 100 µg/mL: read-out: control effect against wheat powdery mildew (%), 100 mg/L; for pest or weed control at 400 µg/mL: read-out: control effect against wheat powdery mildew (%), 400 mg/L; for pest or weed control at 6.25 µg/mL: read-out: control effect against wheat powdery mildew (%), 6.25 mg/L; for pest or weed control at 25 µg/mL: read-out: control effect against wheat powdery mildew (%), 25 mg/L
cucumber gray mold = test: fungicidal activity in vitro (inhibition rate) against cucumber gray mold; format: cell-based; settings: 25 ppm, in vitro; read-out: inhibition rate against cucumber gray mold
carmine spider mite = test: bioactivity test against carmine spider mite, airbrush spray; format: in vivo; settings: contrastive test; for pest or weed control at 600 µg/mL / pest or weed control at 10 µg/mL / pest or weed control at 100 µg/mL: Tetranychus cinnabarinus, 72 h, read-out: Insecticidal activity against carmine spider mite (% ); for pest or weed control at 10 µg/mL: 10 mg/L; for pest or weed control at 100 µg/mL: 100 mg/L
Summary of the method: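 Broadbean seedlings infested with adult mites were sprayed with compound (acetone/methanol stock diluted in 0.1% Tween 80 water) by airbrush at 0.7 kg/cm^2, 0.5 ml. Three replicates were run. Mortality was scored after 72 hrs.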

Diamond back moth = test: insecticidal activity against diamond back moth, airbrush spray; format: in vivo; settings: for pest or weed control at 600 µg/mL / pest or weed control at 10 µg/mL / pest or weed control at 100 µg/mL: 72 h; for pest or weed control at 10 µg/mL: 10 mg/L; for pest or weed control at 100 µg/mL: 100 mg/L
Summary of the method: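 Airbrush leaf-disc spray test: both faces of 2 cm cabbage discs received 0.5 ml of test solution at 0.7 kg/cm^2. Solutions were made in acetone:methanol (1:1) and brought to concentration with 0.1% Tween 80 in water. Ten second-instar larvae per disc, triplicates, were held at 25° C and 60˜70% R.H., with mortality recorded at 72 hrs.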

corn rust = test: protectant activity in vivo against corn rust; settings: Zea mays, 168 h, protectant activity; for pest or weed control at 100 µg/mL: read-out: control effect against corn rust (%), 100 mg/L; for pest or weed control at 400 µg/mL: read-out: control effect against corn rust (%), 400 mg/L; for pest or weed control at 6.25 µg/mL: read-out: control effect against corn rust (%), 6.25 mg/L; for pest or weed control at 25 µg/mL: read-out: control effect against corn rust (%), 25 mg/L
armyworm = test: bioactivity test against armyworm, airbrush spray; format: in vivo; settings: for pest or weed control at 600 µg/mL / pest or weed control at 10 µg/mL / pest or weed control at 100 µg/mL: 72 h, read-out: Insecticidal activity against armyworm (%); for pest or weed control at 10 µg/mL: 10 mg/L; for pest or weed control at 100 µg/mL: 100 mg/L
rice blast = test: microbe, parasite or virus in culture; format: cell-based; settings: Pyricularia oryzae; for inhibition at 25 ppm: read-out: inhibition rate against rice blast, 25 ppm, in vitro; for inhibition at 8.3 ppm: read-out: inhibition rate against rice blast, 8.3 ppm, in vitro
[1] = system: Green peach aphids (Myzus Persicae Sulzer); test: bioactivity test against green peach aphid, airbrush foliar spray; format: in vivo; settings: contrastive test; for pest or weed control at 2.5 µg/mL: 2.5 mg/L; for pest or weed control at 5 µg/mL: 5 mg/L; for pest or weed control at 10 µg/mL: 10 mg/L; for pest or weed control at 100 µg/mL: 100 mg/L
Summary of the method: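 Aphids (15-30 per cabbage leaf disc) on moist filter paper were airbrush-sprayed at 10 psi, 0.5 mL, with compound from acetone:methanol (1:1) diluted in water with 0.1% tween 80. Held at 25±1 C, 60±5% RH; survivors counted after 48 hrs to give death rates.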

cucumber downy mildew = test: protectant activity in vivo against cucumber downy mildew; settings: protectant activity; for pest or weed control at 25 µg/mL / pest or weed control at 50 µg/mL / pest or weed control at 100 µg/mL / pest or weed control at 400 µg/mL: Cucumis sativus, 168 h; for pest or weed control at 25 µg/mL: read-out: control effect against cucumber downy mildew (%), 25 mg/L; for pest or weed control at 50 µg/mL: read-out: control effect against cucumber downy mildew (%), 50 mg/L; for pest or weed control at 100 µg/mL: read-out: control effect against cucumber downy mildew (%), 100 mg/L; for pest or weed control at 400 µg/mL: read-out: control effect against cucumber downy mildew (%), 400 mg/L
[2] = Myzus persicae, foliar, 48 h, read-out: Insecticidal activity against peach aphid (%)
[3] = Myzus persicae, foliar, 48 h, 600 mg/L, read-out: Insecticidal activity against peach aphid (%)

SMILES	pest or weed control at 100 µg/mL (wheat powdery mildew) [%]	pest or weed control at 400 µg/mL (wheat powdery mildew) [%]	inhibition at 25 ppm (cucumber gray mold) [%]	pest or weed control at 600 µg/mL (carmine spider mite; 600 mg/L) [%]	pest or weed control at 600 µg/mL (Diamond back moth; 600 mg/L) [%]	pest or weed control at 100 µg/mL (corn rust) [%]	pest or weed control at 400 µg/mL (corn rust) [%]	pest or weed control at 600 µg/mL (armyworm; 600 mg/L) [%]	inhibition at 25 ppm (rice blast) [%]	pest or weed control at 5 µg/mL [1, 2] [%]	pest or weed control at 10 µg/mL [1, 2] [%]	pest or weed control at 100 µg/mL [1, 2] [%]	pest or weed control at 600 µg/mL [1, 3] [%]	pest or weed control at 6.25 µg/mL (wheat powdery mildew) [%]	pest or weed control at 10 µg/mL (carmine spider mite) [%]	pest or weed control at 100 µg/mL (carmine spider mite) [%]	pest or weed control at 10 µg/mL (Diamond back moth) [%]	pest or weed control at 100 µg/mL (Diamond back moth) [%]	pest or weed control at 6.25 µg/mL (corn rust) [%]	pest or weed control at 25 µg/mL (corn rust) [%]	other results
CC(Cl)c1ncnc(NCCc2ccc(O)cc2)c1Cl (stereo not drawn) [CK4, reference compound]	0	40	0	75	0	0	0	40	< 50	41	64	100	100								pest or weed control at 2.5 µg/mL [1, 2]: 0%
CCc1ncnc(OCCc2ccc(Oc3ccccc3)cc2)c1Cl [CK13, reference compound]	0	40	0	100	67	0	100	86	0	0	83	98	100	0	0	0	0	16	0	0	pest or weed control at 25 µg/mL (wheat powdery mildew): 0%; pest or weed control at 10 µg/mL (armyworm): 0%; pest or weed control at 100 µg/mL (armyworm): 0%; pest or weed control at 25 µg/mL (cucumber downy mildew): 0%; pest or weed control at 50 µg/mL (cucumber downy mildew): 0%; pest or weed control at 100 µg/mL (cucumber downy mildew): 25%; pest or weed control at 400 µg/mL (cucumber downy mildew): 85%
CCc1ncnc(OCCc2ccc(OCc3ccccc3)cc2)c1Cl [CK14, reference compound]	10	85	0	100	67	20	100	0			0	70	100	0	6	33	0	10	0	0	pest or weed control at 25 µg/mL (wheat powdery mildew): 0%; inhibition at 8.3 ppm (rice blast): 0%; pest or weed control at 25 µg/mL (cucumber downy mildew): 0%; pest or weed control at 50 µg/mL (cucumber downy mildew): 0%; pest or weed control at 100 µg/mL (cucumber downy mildew): 40%; pest or weed control at 400 µg/mL (cucumber downy mildew): 98%
CCc1ncnc(OC(CC)c2ccc(Oc3ccc(C(F)(F)F)cn3)cc2)c1Cl (stereo not drawn) [CK15, reference compound]	85	95	0	59	17	85	95	0	0		0	40	69	0	0	0	0	15	0	30	pest or weed control at 25 µg/mL (wheat powdery mildew): 10%; pest or weed control at 25 µg/mL (cucumber downy mildew): 0%; pest or weed control at 50 µg/mL (cucumber downy mildew): 0%; pest or weed control at 100 µg/mL (cucumber downy mildew): 15%; pest or weed control at 400 µg/mL (cucumber downy mildew): 95%
CC(Cl)c1ncnc(NCCc2ccc(Oc3ccc(C(F)(F)F)cc3)cc2)c1Cl (stereo not drawn) [CK20, reference compound]	30	100	< 50	100	57	70	100		< 50					0		72			0	0	pest or weed control at 25 µg/mL (wheat powdery mildew): 0%; pest or weed control at 10 µg/mL (armyworm): 0%; pest or weed control at 25 µg/mL (cucumber downy mildew): 0%; pest or weed control at 50 µg/mL (cucumber downy mildew): 0%; pest or weed control at 100 µg/mL (cucumber downy mildew): 10%; pest or weed control at 400 µg/mL (cucumber downy mildew): 100%
CC(Cl)c1ncnc(NCCc2ccc(Oc3ncc(C(F)(F)F)cc3Cl)cc2)c1Cl (stereo not drawn) [CK21, reference compound]		0	< 50	0	80		85	0	0	19	35	98	100				10	25			pest or weed control at 2.5 µg/mL [1, 2]: 0%
Cc1ncnc(NCc2ccc(Oc3ncc(C(F)(F)F)cc3Cl)cc2)c1Cl [CK32, reference compound]			0						< 50						0	22					control effect against wheat powdery mildew (%) (wheat powdery mildew; 400 mg/L): 0%; Insecticidal activity against carmine spider mite (% ) (carmine spider mite; 600 mg/L): 91%; Insecticidal activity against diamond back moth (%) (Diamond back moth; 600 mg/L): 0%; Insecticidal activity against armyworm (%) (armyworm; 600 mg/L): 0%; control effect against cucumber downy mildew (%) (cucumber downy mildew; 400 mg/L): 60%; Insecticidal activity against peach aphid (%) ([1]; 600 mg/L): 0%
CC(Cl)c1ncnc(NCCc2ccc(Oc3ncc(Cl)cc3Cl)cc2)c1Cl (stereo not drawn) [CK45, reference compound]		0	< 50	0	86		80	0	0	39	55	98	100				0	12			pest or weed control at 1.25 µg/mL ([1]; Myzus persicae, foliar, 48 h, 1.25 mg/L, read-out: Insecticidal activity against peach aphid (%)): 0%; pest or weed control at 2.5 µg/mL [1, 2]: 26%
Cc1ncnc(NC(C)c2ccc(Oc3ccc(C(F)(F)F)cc3)cc2)c1Cl (stereo not drawn) [CK46, reference compound]			0	100	100	0	40	71	< 50		0	5	100		28	63	0	10	0	0	pest or weed control at 10 µg/mL (armyworm): 0%; pest or weed control at 100 µg/mL (armyworm): 0%; inhibition at 8.3 ppm (rice blast): 0%
